Consider eight compounds from ChEMBL document CHEMBL1201862, “PubChem BioAssay data set” (2004).

For orientation: GI50 means the concentration that inhibits growth by half.

Common to all, as to assay: DTP human tumour cell line panel, 48 h
The test system of assay [1] is NCI-H460.
The subject of assay [2] is UACC-62.
In assay [3] the test system is OVCAR-8.
Assay [4] relates to SNB-19.
In assay [5] the test system is DU-145.
Assay [6] deals with COLO 205.
The test system of assay [7] is U-251.
For assay [8], the system named is HCC 2998.
The test system of assay [9] is NCI-H522.
The test system of assay [10] is BT-549.
In assay [11] the test system is Hs-578T.
Assay [12] relates to CAKI-1.
The test system of assay [13] is NCI/ADR-RES.
The test system of assay [14] is A549.
The subject of assay [15] is HCT-15.
Assay [16] relates to NCI-H226.
The subject of assay [17] is MDA-N.
Assay [18] deals with T47D.
Assay [19] has as its system SK-OV-3.
Assay [20] deals with A498.

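Protocol summary: plate cells (96-well), add compound at 5 concentrations, incubate 48 h, interpolate endpoints linearly. GI50 = concentration required for 50% inhibition of growth.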 Active and inactive are the calls of the source. Rule as the data show it: active = GI50 up to about 1.1 µM and inactive = higher.

In the case of `COc1cc2c(c3oc4c(O)cccc4c(=O)c13)CC(C(C)(O)CO)O2` (stereo not drawn), the GI50 in assay [1] was 96.8 µM (inactive); in assay [2], 27.1 µM (inactive); in assay [3], 53.1 µM (inactive); in [4], 94.4 µM (inactive); in assay [5] it was > 100 µM (inactive); in assay [6], > 100 µM (inactive). Besides, the GI50 was 97.9 µM (inactive) in assay [7]; > 100 µM (inactive) in [8]; 35.1 µM (inactive) in assay [9]; 34.5 µM (inactive) in [10]; 44.3 µM (inactive) in assay [11]; 39.9 µM (inactive) in assay [12]. The GI50 is > 100 µM (inactive) in [13]; > 100 µM (inactive) in [14]; over 100 µM in assay [15]; > 100 µM (inactive) in assay [16]; 94.8 µM (inactive) in assay [17]; 75.7 µM (inactive) in assay [18].
Take `c1ccc2c(c1)SC1=C(SC(=C3SC4=C(S3)Sc3ccccc3S4)S1)S2`: the GI50 in assay [1], in assay [2], in assay [3], in assay [4], in [5] and in assay [6] was > 100 µM (inactive) in each case. Besides, the GI50 in assay [7] is > 100 µM (inactive); in [8], > 100 µM (inactive); in assay [9], > 100 µM (inactive); in assay [10], > 100 µM (inactive); in [11], 23.3 µM (inactive); in assay [12] it was > 100 µM (inactive). Besides, the GI50 in [13] is > 100 µM (inactive); in assay [14] it was > 100 µM (inactive); in assay [15] it was over 100 µM; in assay [16] it was > 100 µM (inactive); in assay [17], > 100 µM (inactive); in assay [18], > 100 µM (inactive).
For `CCOC(=O)CCC(NC(=O)c1ccc(Nc2cnc3cc(C(F)(F)F)ccc3n2)cc1)C(=O)OCC` (stereo not drawn), the GI50 in assay [1] was 12.6 µM (inactive); in assay [2], > 10 µM (inactive); in assay [3], 27.2 µM (inactive); in [4], 11.7 µM (inactive); in assay [5], > 100 µM (inactive); in [6], 80.4 µM (inactive). The GI50 in assay [7] is 9.48 µM (inactive); in assay [8] it was > 30.6 µM (inactive); in assay [9] it was 30.3 µM (inactive); in assay [10], 18.5 µM (inactive); in assay [11], 6.21 µM (inactive); in [12] it was 24.7 µM (inactive). For the same compound, the GI50 in assay [13] is > 100 µM (inactive); in assay [14], > 89.3 µM (inactive); in assay [15], over 100 µM; in assay [16], > 79.6 µM (inactive); in [17] it was > 100 µM (inactive); in assay [18] it was > 100 µM (inactive).
On to `COC1(C)/C=N/CC(C)(C)NC(=O)C(C)(OC)/C=N/CC(C)(C)NC1=O` (stereo not drawn), for which the GI50 in assay [2], in [3], in assay [4], in assay [5], in [6] and in assay [7] was > 10 µM (inactive) in each case. For the same compound, the GI50 was > 10 µM (inactive) in assay [8]; 3.53 µM (inactive) in [9]; > 10 µM (inactive) in [10]; > 10 µM (inactive) in assay [11]; > 10 µM (inactive) in assay [19]; > 10 µM (inactive) in assay [12]. Also, the GI50 is > 10 µM (inactive) in [13]; > 10 µM (inactive) in assay [14]; over 10 µM in [15]; > 10 µM (inactive) in assay [17]; > 10 µM (inactive) in [18].
In the case of `Cc1cc2ncn(C3CCCCO3)c2cc1C` (stereo not drawn), the GI50 in assay [2], in assay [3], in assay [4], in assay [5], in [6] and in assay [7] was > 100 µM (inactive) in each case. In addition, the GI50 in assay [8], in [9], in [10], in assay [11], in [19] and in [12] was > 100 µM (inactive) each time. For the same compound, the GI50 is > 100 µM (inactive) in [13]; > 100 µM (inactive) in assay [14]; over 100 µM in assay [15]; > 100 µM (inactive) in assay [16]; > 100 µM (inactive) in [17]; > 100 µM (inactive) in assay [18].
For the compound `NNC(=O)c1nn[nH]c1SSc1[nH]nnc1C(=O)NN`, the GI50 in [1], in assay [2], in [3], in [4], in assay [5] and in assay [6] was > 100 µM (inactive) throughout. Moreover, the GI50 in [7], in assay [8], in assay [9], in assay [10], in assay [11] and in [19] was > 100 µM (inactive) in each case. Further, the GI50 in [12] is > 100 µM (inactive); in assay [13], > 100 µM (inactive); in assay [14] it was > 100 µM (inactive); in assay [15] it was over 100 µM; in [16], > 100 µM (inactive); in [17], > 100 µM (inactive).
As to `CC(C)(C)C(=O)OCOP(=O)(OCOC(=O)C(C)(C)C)OCC1OC(n2ccc(=O)[nH]c2=O)C(N=[N+]=[N-])C1O` (stereo not drawn), the GI50 was 3.08 µM (inactive) in assay [1]; 2.88 µM (inactive) in assay [2]; 3.06 µM (inactive) in assay [3]; 12.9 µM (inactive) in assay [4]; 4.94 µM (inactive) in [5]; 3.14 µM (inactive) in [6]. The GI50 in [7] was 2.59 µM (inactive); in assay [8], 2.75 µM (inactive); in [9] it was 4.92 µM (inactive); in assay [10] it was 3.91 µM (inactive); in assay [11] it was 0.804 µM (active); in assay [12], 10.4 µM (inactive). Besides, the GI50 was 7.74 µM (inactive) in [13]; 2.99 µM (inactive) in [14]; 3.07 µM in assay [15]; 9.29 µM (inactive) in [16]; 3.11 µM (inactive) in assay [17]; 1.48 µM (inactive) in [18].
For `COc1cc(OC)c2nc(C)c3c(c2c1)NCC3`, the GI50 in assay [1] is 3.33 µM (inactive); in assay [20], 13.7 µM (inactive); in assay [2], 9.16 µM (inactive); in assay [3], 4.51 µM (inactive); in assay [4], 12.6 µM (inactive); in [5], 21.6 µM (inactive). For the same compound, the GI50 is 4.68 µM (inactive) in assay [6]; 9.35 µM (inactive) in assay [7]; 7.83 µM (inactive) in assay [8]; 7.73 µM (inactive) in assay [9]; 14.4 µM (inactive) in [10]; 2.56 µM (inactive) in assay [11]. Further, the GI50 in assay [19] is 14.3 µM (inactive); in [13], 18.4 µM (inactive); in [14], 11.8 µM (inactive); in assay [15] it was 12.1 µM; in assay [16] it was 3.47 µM (inactive); in assay [17], 8.09 µM (inactive).
